# According to patent publication US7320984B2, “Remedies or preventives for urinary frequency or urinary incontinence and morphinan derivatives having nitrogen-containing heterocyclic group” (Toray Industries, Inc., priority 2002, dated 2008):
# Test system: rhythmic bladder contractions in rats
# Test: Inhibitory effect against rhythmic bladder contractions in rats
# Format: in vivo
# Conditions: anesthetized female SD rats, intravenous, dose 0.003 mg/kg body weight
# Description: Inhibitory Effect Against Rhythmic Bladder Contractions in Rats
# Female SD rats were anesthetized with an intraperitoneal administration of urethane (1.0 g/kg). A polyethylene tube was inserted from the urethra to the bladder and the tube was fixed by ligation. Then physiological saline was appropriately infused (infusion rate: about 0.2 ml/min., maximum: about 1.5 ml/animal) through the tube to cause rhythmic bladder contractions. The rhythmic bladder contractions were monitored by measuring the intravesical pressure through a polyethylene tube inserted into the bladder. After confirming that stable rhythmic bladder contractions occurred at least 10 times, a vehicle containing a prescribed dose of a test compound was intravenously administration at a dose of 1 ml/kg. In cases where the intravesical pressure, within 10 minutes after the administration of the test compound, decreased to 50% or less of the intravesical pressure immediately […] the administration, the test compound was judged as having inhibitory effect against urinary bladder contractions, and the time period until the intravesical pressure returned to more than 50% was defined as inhibitory time of rhythmic bladder contractions. As the vehicle for administration, physiological saline was used for test compounds 4, 7, 8, 9, 10, 13, 29, 30, 31, 33, 34, 75, 76, 79, 80, 81, 82, 84, 89, 90, 91, 93, 94, 95, 110 and 111, aqueous 10% dimethylsulfoxide (DMSO) solution was used for test compounds 11, 12, 14, 15, 16, 17, 18, 20, 21, 23, 28, 46, 47, 50, 55, 56, 57, 58, 59, 60, 61, 62, 63, 64, 65, 66, 68, 69, 70, 71, 72, 73, 74, 77, 78, 83, 85, 86, 87, 88, 92, 96, 97, 98, 99, 100, […], 103, 104, 105, 106, 107, 108 and […], aqueous 20% dimethylsulfoxide (DMSO) solution was used for test compounds 1, 2, 67 and 101, and aqueous 5% xylitol solution was used for test compounds 5 and 35. The aqueous 10% DMSO solution, aqueous 20% DMSO solution and the aqueous 5% xylitol solution per se, which may influence on the inhibitory time of rhythmic bladder contractions, were also tested at a dose of 1 ml/kg. With any of the compounds, prolongation of the inhibitory time of rhythmic bladder contractions was observed when compared with that obtained in the group to which the vehicle alone was administered.
row,SMILES,Mean Inhibitory Time of Rhythmic Bladder Contractions [min]
1,"O=C1C2=C(CCCC2)C(=O)N1C1CC[C@@]2(O)[C@H]3Cc4ccc(O)c5c4[C@@]2(CCN3CC2CC2)[C@H]1O5 (stereo in doubt) [Compound 72, N-(17-cyclopropylmethyl-4,5α-epoxy-3,14-dihydroxymorphinan-6α-yl)-3,4,5,6-tetrahydrophthalimide]",26.7
2,"O=C1c2ccccc2C(=O)N1[C@H]1CC[C@@]2(O)[C@H]3Cc4ccc(O)c5c4[C@@]2(CCN3CC2CC2)[C@H]1O5 [Compound 66, N-(17-cyclopropylmethyl-4,5α-epoxy-3,14-dihydroxymorphinan-6α-yl)-phthalimide]",27.4

# Same assay, conditions: anesthetized female SD rats, intravenous, dose 0.01 mg/kg body weight
row,SMILES,Mean Inhibitory Time of Rhythmic Bladder Contractions [min]
1,"O=S1(=O)c2ccccc2S(=O)(=O)N1[C@@H]1CC[C@@]2(O)[C@H]3Cc4ccc(O)c5c4[C@@]2(CCN3CC2CC2)[C@H]1O5 [Compound 107, 2-(17-cyclopropylmethyl-4,5α-epoxy-3,14-dihydroxy-morphinan-6β-yl)-benzo[1,3,2]dithiazol-1,1,3,3-tetraoxide]",14.1

# Same assay, conditions: anesthetized female SD rats, intravenous, dose 0.03 mg/kg body weight
row,SMILES,Mean Inhibitory Time of Rhythmic Bladder Contractions [min]
1,"O=C1c2cccc(F)c2CN1[C@@H]1CC[C@@]2(O)[C@H]3Cc4ccc(O)c5c4[C@@]2(CCN3CC2CC2)[C@H]1O5 [Compound 81, 2-(17-cyclopropylmethyl-4,5α-epoxy-3,14-dihydroxy-morphinan-6β-yl)-4-fluoro-2,3-dihydro-isoindol-1-one]",16.1
2,"CC(=O)O[C@@]12CC[C@@H](N3C(=O)c4ccccc4C3=O)[C@@H]3Oc4c(O)ccc5c4[C@@]31CCN(CC1CC1)[C@@H]2C5 [Compound 91, N-(14-acetoxy-17-cyclopropylmethyl-4,5α-epoxy-3-hydroxymorphinan-6β-yl)-phthalimide]",14.7
3,"C=CCN1CC[C@]23c4c5ccc(O)c4O[C@H]2[C@H](N2Cc4cccc(F)c4C2=O)CC[C@@]3(O)[C@H]1C5 [Compound 88, 2-(17-allyl-4,5α-epoxy-3,14-dihydroxy-morphinan-6β-yl)-7-fluoro-2,3-dihydro-isoindol-1-one]",10.7

# Same assay, conditions: anesthetized female SD rats, intravenous, dose 0.1 mg/kg body weight
row,SMILES,Mean Inhibitory Time of Rhythmic Bladder Contractions [min]
1,"CC1=C(C)C(=O)N([C@@H]2CC[C@@]3(O)[C@H]4Cc5ccc(O)c6c5[C@@]3(CCN4CC3CC3)[C@H]2O6)C1=O [Compound 75, N-(17-cyclopropylmethyl-4,5α-epoxy-3,14-dihydroxy-morphinan-6β-yl)-2,3-dimethyl-maleimide]",20.2
2,"O=C1c2cccnc2C(=O)N1[C@@H]1CC[C@@]2(O)[C@H]3Cc4ccc(O)c5c4[C@@]2(CCN3CC2CC2)[C@H]1O5 [Compound 80, N-(17-cyclopropylmethyl-4,5α-epoxy-3,14-dihydroxy-morphinan-6β-yl)-2,3-pyridinedicarboimide]",1.1
3,"O=c1c2ccccc2[nH]n1[C@@H]1CC[C@@]2(O)[C@H]3Cc4ccc(O)c5c4[C@@]2(CCN3CC2CC2)[C@H]1O5 [Compound 103, 2-(17-cyclopropylmethyl-4,5α-epoxy-3,14-dihydroxy-morphinan-6β-yl)-1,2-dihydro-indazol-3-one]",13.1
4,"O=C1C(c2ccccc2)=C(c2ccccc2)C(=O)N1[C@@H]1CC[C@@]2(O)[C@H]3Cc4ccc(O)c5c4[C@@]2(CCN3CC2CC2)[C@H]1O5 [Compound 70, N-(17-cyclopropylmethyl-4,5α-epoxy-3,14-dihydroxymorphinan-6β-yl)-2,3-diphenylmaleimide]",8.9
5,"C=CCN1CC[C@]23c4c5ccc(O)c4O[C@H]2[C@@H](N2Cc4ccccc4C2=O)CC[C@@]3(O)[C@H]1C5 [Compound 87, 2-(17-allyl-4,5α-epoxy-3,14-dihydroxy-morphinan-6α-yl)-2,3-dihydro-isoindol-1-one]",6.4
6,"O=C1c2cccc(O)c2C(=O)N1[C@@H]1CC[C@@]2(O)[C@H]3Cc4ccc(O)c5c4[C@@]2(CCN3CC2CC2)[C@H]1O5 [Compound 96, N-(17-cyclopropylmethyl-4,5α-epoxy-3,14-dihydroxy-morphinan-6β-yl)-3-hydroxy-phthalimide]",12.9
7,"C=CCN1CC[C@]23c4c5ccc(O)c4O[C@H]2[C@H](N2C(=O)c4ccc(Cl)cc4C2=O)CC[C@@]3(O)[C@H]1C5 [Compound 57, N-(17-allyl-4,5α-epoxy-3,14-dihydroxymorphinan-6β-yl)-4-chlorophthalimide]",24.2
8,"C=CCN1CC[C@]23c4c5ccc(O)c4O[C@H]2[C@H](N2Cc4ccccc4C2=O)CC[C@@]3(O)[C@H]1C5 [Compound 86, 2-(17-allyl-4,5α-epoxy-3,14-dihydroxy-morphinan-6β-yl)-2,3-dihydro-isoindol-1-one]",12.1
9,"O=c1c2ccccc2[nH]c(=S)n1[C@@H]1CC[C@@]2(O)[C@H]3Cc4ccc(O)c5c4[C@@]2(CCN3CC2CC2)[C@H]1O5 [Compound 105, 3-(17-cyclopropylmethyl-4,5α-epoxy-3,14-dihydroxy-morphinan-6β-yl)-2-thioxo-2,3-dihydro-1H-quinazolin-4-one]",7.3

# Same assay, conditions: anesthetized female SD rats, intravenous, dose 0.3 mg/kg body weight
row,SMILES,Mean Inhibitory Time of Rhythmic Bladder Contractions [min]
1,"O=C1C(Cc2ccccc2)CCN1[C@H]1CC[C@@]2(O)[C@H]3Cc4ccc(O)c5c4[C@@]2(CCN3CC2CC2)[C@H]1O5 (stereo partly drawn) [Compound 35, 1-(17-cyclopropylmethyl-4,5α-epoxy-3,14-dihydroxy-morphinan-6α-yl)-3-benzyl-pyrrolidin-2-one]",29.9

# Same assay, conditions: anesthetized female SD rats, intravenous, dose 1.0 mg/kg body weight
row,SMILES,Mean Inhibitory Time of Rhythmic Bladder Contractions [min]
1,"CCN(CC)C(=O)[C@@H]1CCCN1[C@@H]1CC[C@@]2(O)[C@H]3Cc4ccc(O)c5c4[C@@]2(CCN3C)[C@H]1O5 [Compound 29, 1-(4,5α-epoxy-3,14-dihydroxy-17-methyl-morphinan-6β-yl)-pyrrolidin-(2S)-carboxyl diethylamide]",0.8
2,"O=C1C(Cc2ccccc2)CCN1[C@@H]1CC[C@@]2(O)[C@H]3Cc4ccc(O)c5c4[C@@]2(CCN3CC2CC2)[C@H]1O5 (stereo partly drawn) [Compound 47, 1-(17-cyclopropylmethyl-4,5α-epoxy-3,14-dihydroxy-morphinan-6β-yl)-3-benzyl-pyrrolidin-2-one]",21.8
3,"O=C1CCC(=O)N1[C@@H]1CC[C@@]2(O)[C@H]3Cc4ccc(O)c5c4[C@@]2(CCN3CC2CC2)[C@H]1O5 [Compound 20, N-(17-cyclopropylmethyl-4,5α-epoxy-3,14-dihydroxy-morphinan-6β-yl)-succinimide]",18.1
4,"CN1CC[C@]23c4c5ccc(O)c4O[C@H]2[C@H](N2CC(=O)Nc4ccccc42)CC[C@@]3(O)[C@H]1C5 [Compound 7, 4-(4,5α-epoxy-3,14-dihydroxy-17-methyl-morphinan-6β-yl)-3,4-dihydro-1H-quinoxalino-2-one]",3.8
5,"O=C1CCCN1[C@@H]1CC[C@@]2(O)[C@H]3Cc4ccc(O)c5c4[C@@]2(CCN3CC2CC2)[C@H]1O5 [Compound 46, 1-(17-cyclopropylmethyl-4,5α-epoxy-3,14-dihydroxy-morphinan-6β-yl)-pyrrolidin-2-one]",20.0
